Laboratory results: patent US8158636B2, “Compounds and methods for kinase modulation, and indications therefor” (Plexxikon Inc., priority 2008, dated 2012)

Tests used:
Type in all cases: biochemical
[1] = target: Fms (Homo sapiens, UniProt P07333); test: Kinase activity assay, Fms; conditions: Table 1h; read-out: activity toward kinase Fms, IC50
From the text: (§1) Assays for the activity of kinases, including, but not limited to, Fms, Kit, B-Raf, B-Raf V600E, c-Raf-1, and TrkA are known in the art, for example as described in US Patent Publication Number US20070032519 and U.S. patent application Ser. No. 11/473,347 (see also, PCT publication WO2007002433), the disclosures of which are hereby incorporated by reference with respect to such assays.

[2] = target: Kdr (Homo sapiens, UniProt P35968); test: Kinase activity assay, Kdr; conditions: Table 1i; read-out: activity toward kinase Kdr, IC50
Chain of Kdr (P35968 20-1356): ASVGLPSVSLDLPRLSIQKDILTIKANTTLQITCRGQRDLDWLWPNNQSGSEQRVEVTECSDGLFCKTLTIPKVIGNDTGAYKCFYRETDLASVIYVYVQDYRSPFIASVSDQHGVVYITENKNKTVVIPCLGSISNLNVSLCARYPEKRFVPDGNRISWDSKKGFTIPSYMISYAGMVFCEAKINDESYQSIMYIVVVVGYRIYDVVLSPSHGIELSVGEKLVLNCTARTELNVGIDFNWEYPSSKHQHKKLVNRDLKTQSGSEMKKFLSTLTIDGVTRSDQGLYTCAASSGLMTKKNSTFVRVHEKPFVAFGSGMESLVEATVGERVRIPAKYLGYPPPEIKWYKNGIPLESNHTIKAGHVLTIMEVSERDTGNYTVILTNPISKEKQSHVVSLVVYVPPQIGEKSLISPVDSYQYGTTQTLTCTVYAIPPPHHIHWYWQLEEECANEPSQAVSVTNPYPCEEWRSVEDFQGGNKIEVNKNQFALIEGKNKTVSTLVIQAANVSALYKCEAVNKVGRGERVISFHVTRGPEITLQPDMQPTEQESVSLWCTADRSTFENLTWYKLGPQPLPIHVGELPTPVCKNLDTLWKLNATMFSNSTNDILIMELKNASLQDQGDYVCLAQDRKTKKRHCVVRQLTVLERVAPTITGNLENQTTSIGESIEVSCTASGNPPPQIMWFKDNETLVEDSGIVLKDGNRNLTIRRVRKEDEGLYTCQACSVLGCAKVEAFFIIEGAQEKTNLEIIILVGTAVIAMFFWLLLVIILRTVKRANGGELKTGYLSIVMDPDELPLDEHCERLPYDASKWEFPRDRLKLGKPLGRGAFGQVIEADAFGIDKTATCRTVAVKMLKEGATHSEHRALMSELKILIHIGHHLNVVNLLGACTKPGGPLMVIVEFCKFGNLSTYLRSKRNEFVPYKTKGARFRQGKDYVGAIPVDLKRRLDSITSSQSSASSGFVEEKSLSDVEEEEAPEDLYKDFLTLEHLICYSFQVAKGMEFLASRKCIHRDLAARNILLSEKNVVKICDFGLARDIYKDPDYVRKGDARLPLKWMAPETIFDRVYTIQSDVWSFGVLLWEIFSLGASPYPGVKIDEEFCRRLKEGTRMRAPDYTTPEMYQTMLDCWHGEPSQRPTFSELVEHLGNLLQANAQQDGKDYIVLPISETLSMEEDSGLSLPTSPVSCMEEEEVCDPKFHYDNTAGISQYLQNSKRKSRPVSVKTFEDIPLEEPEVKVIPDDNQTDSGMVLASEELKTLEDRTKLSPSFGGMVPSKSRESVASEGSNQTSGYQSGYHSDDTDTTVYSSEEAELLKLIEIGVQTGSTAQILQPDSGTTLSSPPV
From the text: as §1

[3] = target: Kit (Homo sapiens, UniProt P10721); test: Kinase activity assay, Kit; conditions: Table 1j; read-out: activity toward kinase Kit, IC50
Chain of Kit (P10721 26-976): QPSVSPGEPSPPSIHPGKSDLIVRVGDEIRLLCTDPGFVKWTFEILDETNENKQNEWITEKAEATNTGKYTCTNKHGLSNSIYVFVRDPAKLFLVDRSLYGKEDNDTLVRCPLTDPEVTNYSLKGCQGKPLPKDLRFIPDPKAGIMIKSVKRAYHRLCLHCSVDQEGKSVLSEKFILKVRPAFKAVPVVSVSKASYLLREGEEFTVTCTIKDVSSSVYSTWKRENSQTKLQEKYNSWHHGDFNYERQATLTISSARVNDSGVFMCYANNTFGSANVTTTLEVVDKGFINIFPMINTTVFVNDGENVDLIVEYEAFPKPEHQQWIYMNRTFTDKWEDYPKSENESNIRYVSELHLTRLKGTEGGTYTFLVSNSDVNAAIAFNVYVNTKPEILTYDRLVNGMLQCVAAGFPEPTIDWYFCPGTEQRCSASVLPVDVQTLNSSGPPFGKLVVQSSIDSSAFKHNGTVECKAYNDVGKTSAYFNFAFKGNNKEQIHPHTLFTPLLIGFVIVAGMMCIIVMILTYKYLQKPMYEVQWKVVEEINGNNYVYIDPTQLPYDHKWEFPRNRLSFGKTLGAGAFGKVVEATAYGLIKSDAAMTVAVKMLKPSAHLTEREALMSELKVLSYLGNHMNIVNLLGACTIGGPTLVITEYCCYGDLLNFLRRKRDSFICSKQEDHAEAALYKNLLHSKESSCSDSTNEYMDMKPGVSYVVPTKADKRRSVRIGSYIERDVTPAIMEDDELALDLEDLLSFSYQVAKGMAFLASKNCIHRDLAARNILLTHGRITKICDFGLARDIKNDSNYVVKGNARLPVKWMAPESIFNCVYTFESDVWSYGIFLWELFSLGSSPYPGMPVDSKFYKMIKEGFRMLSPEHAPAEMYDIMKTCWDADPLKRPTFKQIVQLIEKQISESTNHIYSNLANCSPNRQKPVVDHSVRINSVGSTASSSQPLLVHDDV
From the text: as §1

[4] = target: TrkA (Homo sapiens, UniProt P04629); test: Kinase activity assay, TrkA; conditions: Table 1m; read-out: activity toward kinase TrkA, IC50
Chain of TrkA (P04629 33-796): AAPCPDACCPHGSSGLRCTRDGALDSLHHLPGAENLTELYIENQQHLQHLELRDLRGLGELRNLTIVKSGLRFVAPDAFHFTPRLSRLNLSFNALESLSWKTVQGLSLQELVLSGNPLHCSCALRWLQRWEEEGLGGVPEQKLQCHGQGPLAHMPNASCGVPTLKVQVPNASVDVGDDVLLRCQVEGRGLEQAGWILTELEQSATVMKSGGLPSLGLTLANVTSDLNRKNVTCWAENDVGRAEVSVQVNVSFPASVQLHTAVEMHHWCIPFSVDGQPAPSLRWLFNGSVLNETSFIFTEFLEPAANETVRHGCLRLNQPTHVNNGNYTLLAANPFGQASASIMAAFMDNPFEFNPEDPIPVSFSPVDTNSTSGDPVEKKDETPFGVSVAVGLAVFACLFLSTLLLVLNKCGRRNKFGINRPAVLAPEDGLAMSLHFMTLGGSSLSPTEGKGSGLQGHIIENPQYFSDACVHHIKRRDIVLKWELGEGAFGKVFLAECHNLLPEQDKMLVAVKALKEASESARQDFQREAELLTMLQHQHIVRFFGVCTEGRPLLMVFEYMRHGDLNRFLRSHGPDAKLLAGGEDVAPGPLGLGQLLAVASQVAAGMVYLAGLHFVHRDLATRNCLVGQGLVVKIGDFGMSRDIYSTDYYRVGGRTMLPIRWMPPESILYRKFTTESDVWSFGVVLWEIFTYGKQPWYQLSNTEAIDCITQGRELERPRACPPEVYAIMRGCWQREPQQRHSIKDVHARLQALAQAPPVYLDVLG
From the text: as §1

[5] = target: B-Raf V600E (Homo sapiens, UniProt P15056, V600E); test: Kinase activity assay, B-Raf V600E; conditions: Table 1c; read-out: activity toward kinase B-Raf V600E, IC50
Chain of B-Raf V600E (P15056 whole entry V600E): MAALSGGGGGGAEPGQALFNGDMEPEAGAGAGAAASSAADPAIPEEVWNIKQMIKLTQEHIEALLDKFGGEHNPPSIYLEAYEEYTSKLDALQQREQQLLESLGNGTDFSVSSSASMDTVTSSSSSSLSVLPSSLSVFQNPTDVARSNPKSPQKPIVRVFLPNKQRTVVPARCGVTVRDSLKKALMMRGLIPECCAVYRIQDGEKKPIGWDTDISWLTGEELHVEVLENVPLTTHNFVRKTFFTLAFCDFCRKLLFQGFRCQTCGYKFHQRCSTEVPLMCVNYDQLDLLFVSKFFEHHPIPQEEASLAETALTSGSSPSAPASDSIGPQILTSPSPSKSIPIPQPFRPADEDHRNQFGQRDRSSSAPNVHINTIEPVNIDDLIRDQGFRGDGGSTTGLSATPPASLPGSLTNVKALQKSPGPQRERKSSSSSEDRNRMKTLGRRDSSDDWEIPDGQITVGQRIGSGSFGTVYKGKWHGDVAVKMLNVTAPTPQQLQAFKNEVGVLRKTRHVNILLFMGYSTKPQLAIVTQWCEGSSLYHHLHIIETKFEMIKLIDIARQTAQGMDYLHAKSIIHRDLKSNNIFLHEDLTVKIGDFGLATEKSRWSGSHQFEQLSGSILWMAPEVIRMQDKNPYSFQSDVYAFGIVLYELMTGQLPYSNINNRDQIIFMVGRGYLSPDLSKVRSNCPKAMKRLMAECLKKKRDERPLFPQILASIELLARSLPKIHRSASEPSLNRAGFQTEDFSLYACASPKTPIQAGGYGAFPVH
From the text: as §1

[6] = target: C-Raf (Homo sapiens, UniProt P04049); test: Kinase activity assay, C-Raf; conditions: Table 1d; read-out: activity toward kinase C-Raf, IC50
From the text: as §1

Measured: IC50

Chain of Fms (P07333 20-972): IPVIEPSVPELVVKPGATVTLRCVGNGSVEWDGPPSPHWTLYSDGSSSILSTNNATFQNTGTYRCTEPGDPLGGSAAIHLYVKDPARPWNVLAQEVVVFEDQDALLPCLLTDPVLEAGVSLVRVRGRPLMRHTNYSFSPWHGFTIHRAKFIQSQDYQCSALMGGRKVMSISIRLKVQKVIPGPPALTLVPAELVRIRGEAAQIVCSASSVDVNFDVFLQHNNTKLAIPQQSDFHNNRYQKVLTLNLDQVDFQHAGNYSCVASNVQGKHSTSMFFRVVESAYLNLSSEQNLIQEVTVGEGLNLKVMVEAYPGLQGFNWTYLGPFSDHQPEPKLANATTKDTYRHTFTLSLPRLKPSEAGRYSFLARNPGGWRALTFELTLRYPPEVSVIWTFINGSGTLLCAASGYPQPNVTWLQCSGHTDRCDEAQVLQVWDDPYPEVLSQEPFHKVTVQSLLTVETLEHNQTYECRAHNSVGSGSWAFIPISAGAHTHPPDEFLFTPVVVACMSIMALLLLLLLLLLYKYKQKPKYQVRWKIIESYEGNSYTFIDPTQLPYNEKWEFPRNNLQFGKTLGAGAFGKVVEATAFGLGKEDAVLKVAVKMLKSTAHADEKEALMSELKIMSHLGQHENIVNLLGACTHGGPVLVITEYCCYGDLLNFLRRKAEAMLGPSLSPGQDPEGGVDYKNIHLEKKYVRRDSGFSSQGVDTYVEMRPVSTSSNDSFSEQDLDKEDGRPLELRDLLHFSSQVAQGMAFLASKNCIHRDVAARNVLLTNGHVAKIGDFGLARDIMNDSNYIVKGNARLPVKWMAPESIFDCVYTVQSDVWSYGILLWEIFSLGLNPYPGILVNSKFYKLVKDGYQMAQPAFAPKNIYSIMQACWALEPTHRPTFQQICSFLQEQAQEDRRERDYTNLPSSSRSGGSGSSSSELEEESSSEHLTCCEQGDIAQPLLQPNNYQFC

Cc1cc(F)cc(CNc2ccc(Cc3c[nH]c4ncncc34)c(F)n2)c1 [P-0064, (3-Fluoro-5-methyl-benzyl)-[6-fluoro-5-(7H-pyrrolo[2,3-d]pyrimidin-5-ylmethyl)-pyridin-2-yl]-amine]
≤ 10 µM: [1] | [2] | [3] | [4]

COc1ncc(F)cc1CNc1ccc(Cc2c[nH]c3ncnc(OC)c23)c(F)n1 [P-0094, (5-Fluoro-2-methoxy-pyridin-3-ylmethyl)-[6-fluoro-5-(4-methoxy-7H-pyrrolo[2,3-d]pyrimidin-5-ylmethyl)-pyridin-2-yl]-amine]
≤ 10 µM: [1] | [2] | [3] | [4]

Fc1nc(NCc2cc(C(F)(F)F)cc(C(F)(F)F)c2)ccc1Cc1c[nH]c2ncncc12 [P-0054, (3,5-Bis-trifluoromethyl-benzyl)-[6-fluoro-5-(7H-pyrrolo[2,3-d]pyrimidin-5-ylmethyl)-pyridin-2-yl]-amine]
≤ 10 µM: [1] | [2] | [3] | [4]

CCOc1ncccc1CNc1ccc(Cc2c[nH]c3ncncc23)c(F)n1 [P-0069, (2-Ethoxy-pyridin-3-ylmethyl)-[6-fluoro-5-(7H-pyrrolo[2,3-d]pyrimidin-5-ylmethyl)-pyridin-2-yl]-amine]
≤ 10 µM: [1] | [2] | [3] | [4]

COc1cc(CNc2ccc(Cc3c[nH]c4ncncc34)c(F)n2)cc(OC)c1 [P-0065, (3,5-Dimethoxy-benzyl)-[6-fluoro-5-(7H-pyrrolo[2,3-d]pyrimidin-5-ylmethyl)-pyridin-2-yl]-amine]
≤ 10 µM: [1] | [2] | [4]

COc1cc(CNc2ccc(Cc3c[nH]c4ncncc34)c(F)n2)cc(C(F)(F)F)c1 [P-0082, [6-Fluoro-5-(7H-pyrrolo[2,3-d]pyrimidin-5-ylmethyl)-pyridin-2-yl]-(3-methoxy-5-trifluoromethyl-benzyl)-amine]
≤ 10 µM: [1] | [2] | [3] | [4]

COc1ncc(F)cc1CNc1ccc(Cc2c[nH]c3ncnc(O)c23)cn1 [P-0099, 5-{6-[(5-Fluoro-2-methoxy-pyridin-3-ylmethyl)-amino]-pyridin-3-ylmethyl}-7H-pyrrolo[2,3-d]pyrimidin-4-ol]
≤ 10 µM: [1] | [3] | [4]

CN(C)c1ccccc1CNc1ccc(Cc2c[nH]c3ncncc23)c(F)n1 [P-0061, (2-Dimethylamino-benzyl)-[6-fluoro-5-(7H-pyrrolo[2,3-d]pyrimidin-5-ylmethyl)-pyridin-2-yl]-amine]
≤ 10 µM: [1] | [2] | [3] | [4]

Cc1cc(C)cc(CNc2ccc(Cc3c[nH]c4ncncc34)c(F)n2)c1 [P-0063, (3,5-Dimethyl-benzyl)-[6-fluoro-5-(7H-pyrrolo[2,3-d]pyrimidin-5-ylmethyl)-pyridin-2-yl]-amine]
not listed: [6]
≤ 10 µM: all other assays above

C[C@H](Nc1ccc(Cc2c[nH]c3ncncc23)c(F)n1)c1ccc(F)cc1 [P-0016, [(S)-1-(4-Fluoro-phenyl)-ethyl]-[6-fluoro-5-(7H-pyrrolo[2,3-d]pyrimidin-5-ylmethyl)-pyridin-2-yl]-amine]
≤ 10 µM: [5] | [1] | [2] | [3]

COc1ncc(CNc2ccc(Cc3c[nH]c4ncnc(OC)c34)c(F)n2)cc1F [P-0091, (5-Fluoro-6-methoxy-pyridin-3-ylmethyl)-[6-fluoro-5-(4-methoxy-7H-pyrrolo[2,3-d]pyrimidin-5-ylmethyl)-pyridin-2-yl]-amine]
not listed: [6]
≤ 10 µM: all other assays above

COc1ccc(OC)c(CNc2ccc(Cc3c[nH]c4ncncc34)c(F)n2)c1 [P-0038, (2,5-Dimethoxy-benzyl)-[6-fluoro-5-(7H-pyrrolo[2,3-d]pyrimidin-5-ylmethyl)-pyridin-2-yl]-amine]
≤ 10 µM: [5] | [1] | [3]

Fc1nc(NCc2ccnc(C(F)(F)F)c2)ccc1Cc1c[nH]c2ncncc12 [P-0075, [6-Fluoro-5-(7H-pyrrolo[2,3-d]pyrimidin-5-ylmethyl)-pyridin-2-yl]-(2-trifluoromethyl-pyridin-4-ylmethyl)-amine]
≤ 10 µM: [1] | [2] | [4]

COc1ncc(F)cc1CNc1ncc(Cc2c[nH]c3ncncc23)cn1 [P-0022, (5-Fluoro-2-methoxy-pyridin-3-ylmethyl)-[5-(7H-pyrrolo[2,3-d]pyrimidin-5-ylmethyl)-pyrimidin-2-yl]-amine]
≤ 10 µM: [5] | [1] | [2] | [3]

Fc1nc(NCc2cccnc2C(F)(F)F)ccc1Cc1c[nH]c2ncncc12 [P-0071, [6-Fluoro-5-(7H-pyrrolo[2,3-d]pyrimidin-5-ylmethyl)-pyridin-2-yl]-(2-trifluoromethyl-pyridin-3-ylmethyl)-amine]
≤ 10 µM: [1] | [2] | [4]

Fc1cc(Cl)cc(CNc2ccc(Cc3c[nH]c4ncncc34)c(F)n2)c1 [P-0067, (3-Chloro-5-fluoro-benzyl)-[6-fluoro-5-(7H-pyrrolo[2,3-d]pyrimidin-5-ylmethyl)-pyridin-2-yl]-amine]
not listed: [6]
≤ 10 µM: all other assays above

Fc1nc(NCc2ccc(Cl)nc2)ccc1Cc1c[nH]c2ncncc12 [P-0045, (6-Chloro-pyridin-3-ylmethyl)-[6-fluoro-5-(7H-pyrrolo[2,3-d]pyrimidin-5-ylmethyl)-pyridin-2-yl]-amine]
≤ 10 µM: [5] | [1] | [2] | [3]

Fc1nc(NCc2ccc(Br)cn2)ccc1Cc1c[nH]c2ncncc12 [P-0053, (5-Bromo-pyridin-2-ylmethyl)-[6-fluoro-5-(7H-pyrrolo[2,3-d]pyrimidin-5-ylmethyl)-pyridin-2-yl]-amine]
≤ 10 µM: [5] | [1] | [2] | [3]

COc1ncc(CNc2ncc(Cc3c[nH]c4ncncc34)cn2)cc1F [P-0024, (5-Fluoro-6-methoxy-pyridin-3-ylmethyl)-[5-(7H-pyrrolo[2,3-d]pyrimidin-5-ylmethyl)-pyrimidin-2-yl]-amine]
≤ 10 µM: [1] | [2] | [3] | [4]

COc1ncc(F)cc1CNc1ncc(Cc2c[nH]c3ncnc(OC)c23)cn1 [P-0093, (5-Fluoro-2-methoxy-pyridin-3-ylmethyl)-[5-(4-methoxy-7H-pyrrolo[2,3-d]pyrimidin-5-ylmethyl)-pyrimidin-2-yl]-amine]
≤ 10 µM: [6] | [1] | [2] | [3]

Cc1ccc(CNc2ccc(Cc3c[nH]c4ncncc34)c(F)n2)nc1 [P-0062, [6-Fluoro-5-(7H-pyrrolo[2,3-d]pyrimidin-5-ylmethyl)-pyridin-2-yl]-(5-methyl-pyridin-2-ylmethyl)-amine]
≤ 10 µM: [5] | [1] | [2] | [3]
